From patent US20240166602A1, “SUBSTITUTED DIARYL COMPOUND AS WELL AS PREPARATION METHOD AND APPLICATION THEREOF” (SHANDONG FIRST MEDICAL UNIV & SHANDONG ACADEMY OF MEDICAL …, priority 2021, published 2024)
Where two headings read alike, the source gives them in different places.

Assays:
Assay type in all cases: cell-based
[1] = system: human lung cancer (A549) cells; assay: MTT tumor cell growth inhibition, human lung cancer (A549); conditions: A549, 48 h culture, MTT method, read-out: IC50 value of target compound against cancer cell proliferation, A549
Method: (§1) Dissolve CHJ compound series with dimethyl sultbxide (DMSO, final concentration 0.4%), and use RPMI-1640 culture medium containing 15% fetal calf serum to prepare 1 mg/mL solution for future use. During drug administration in groups, use the culture medium to dilute it to the concentration needed.
(§2) Cell lines: human lung cancer (A549), Inman ovarian cancer (SKOV3), human melanoma (A375) and human colon cancer (LOVO) cell lines, all purchased from the Cell Bank of the Chinese Academy of Sciences, DMEM containing 15% fetal bovine serum (High Glucose) culture medium, placed in a 37° C., 5% CO2 incubator.
(§3) MTT is an oxidizing yellow dye with the chemical name of 3-(4,5-dimethyl-2-thiazolyl)-2,5-diphenyl-2-H-tetrazoliumbromide tetrazole bromide. The MMT method, also known as the MTT colorimetric method, can test the survival and growth of cells. The method is simple and easily accessible and often used to screet the substance with cytotoxic activity. The basic principle of testing, is that succinodehydrogenase can reduce exogenous MIT so that MTT is reduced to blueviolet crystal Formazan insoluble to water. The crystal deposits in cells. The succinodehydrogenase exists in the mitochondria of living cells, not in the dead cells. Therefore, the chromogenic reaction can only take place in living cells. Then, dissolve the blueviolet crystal Formazan contained in cells with dimethyl sulfoxide (DMSO), and measure its absorbancy with microplate reader so that the count of living cells is reflected indirectly. Within the scope of certain cell count, the amount of blueviolet crystal Formazan formed is positively correlated to the count of living cells.
(§4) Human lung cancer (A549), human ovarian cancer (SKOV3), human melanoma (A375) and human colon cancer (LOVO) ceilsare all adherent. Based on the growth rate of tumor cells, wash the adherent tumor cells in the logarithmic phase and digest them in 0.25% EDTA pancreatic enzyme. Adjust the cell count to 1×10^5/mL and inoculate the cells in 96-pore plate, each pore containing 100 μL. Culture the cells in the 37° C. CO2 incubator, and administer the drug 24 h later. Add pharmaceutical (CJH compound series) of different concentrations to the administration group. Set up 5 dosage groups for each pharmaceutical, respectively 100, 10, 1, 0.1, 0.01 μmol/L. Set up three complex pores for each concentration. Set up blank control, DMSO (0.8%) solvent control and cis-platinum positive control. After 48 h of culture in the 37 ° C. incubator containing 5% CO2, measure the OD value through MTT method and calculate the cell inhibition ratio.
(§5) After 48 h of culture of human lung cancer (A549), human ovarian cancer (SKOV3). human melanoma (A375) and human colon cancer (LOVO) cells, stop it and add 10 μL 0.5% MTT solution to each pore. Place it in the CO2 incubator for 4 h. Remove the liquid from each pore, respectively add 0.2 mL DMSO solution, and oscillate it adequately on the table concentrator under low frequency so that the blueviolet crystal Formazan is dissolved adequately. Place it in the microplate reader and record the OD value at the wavelength of […]. Calculate the average OD value of three parallel pores of different concentrations, and calculate the cell inhibition ratio and IC50 of each tested pharmaceutical under different concentrations based on the average.
(§6) Inhibition ratio (%)=[1-tested sample OD/negative control group OD]×100%.

[2] = system: human ovarian cancer (SKOV3) cells; assay: MTT tumor cell growth inhibition, human ovarian cancer (SKOV3); conditions: SKOV3, 48 h culture, MTT method, read-out: IC50 value of target compound against cancer cell proliferation, SKOV3
Method: as §1, §2, §3, §4, §5, §6

[3] = system: human melanoma (A375) cells; assay: MTT tumor cell growth inhibition, human melanoma (A375); conditions: A375, 48 h culture, MTT method, read-out: IC50 value of target compound against cancer cell proliferation, A375
Method: as §1, §2, §3, §4, §5, §6

[4] = system: human colon cancer (LOVO) cells; assay: MTT tumor cell growth inhibition, human colon cancer (LOVO); conditions: 48 h culture, MTT method, read-out: IC50 value of target compound against cancer cell proliferation, LOVO
Method: as §1, §2, §3, §4, §5, §6

IC50 ([1]; Homo sapiens) [µM] | IC50 ([2]; Homo sapiens, SK-OV-3) [µM] | IC50 ([3]; Homo sapiens, A-375) [µM] | IC50 ([4]; Homo sapiens) [µM] | SMILES | IC50 [1] [µM] | IC50 [2] [µM] | IC50 [3] [µM] | IC50 [4] [µM]
0.86 ± 0.45 | 3.06 ± 1.1 | 0.65 ± 0.14 | 1.16 ± 0.94 | COc1cc(CN(C)CC(O)COc2cc(Cl)cc(Br)c2)ccc1OCCN1CCC(C)CC1 (stereo not shown) [CHJ04034, 1-(3-bromo-5-chlorophenoxy)-3-((3-methoxy-4-(2-(4-methylpiperidin1-yl)ethoxy)benzyl)(methyl)amino)propan-2-ol] | – | – | – | –
245.3 ± 2.4 | 102 ± 1.48 | 56.21 ± 0.55 | 54 ± 2.14 | COc1cc(CN(C)CC(O)COc2cccc(NC(C)=O)c2)ccc1OCCN1CCC(C)CC1 (stereo not shown) [CHJ04058, N-(3-(2-hydroxy-3((3-methoxy-4-(2-(4-methylpiperidin-1-yl)ethoxy)benzyl)(methyl)amino)propoxy)phenyl)acetamide] | – | – | – | –
10.6 ± 3.37 | 3.26 ± 1.21 | 3.23 ± 0.49 | 3.92 ± 0.56 | COc1cc(CN(C)CC(O)COc2ccc(Cl)cc2Cl)ccc1OCCN1CCC(C)CC1 (stereo not shown) [CHJ04059, 1-(2,4-dichlorophenoxy)-3-((3-methoxy-4-(2-(4-methylpiperidin-1-yl)ethoxy)benzyl) (methyl)amino)propan-2-ol] | – | – | – | –
21.5 ± 3.65 | 17.1 ± 0.24 | 9.24 ± 2.65 | 3.55 ± 2.14 | COc1cc(CN(C)CC(O)COc2ccc(C)c(Br)c2)ccc1OCCN1CCCC1 (stereo not shown) [CHJ04064, 1-(3-bromo-4-methylphenoxy)-3-((3-methoxy-4-(2-(pyrrolidin-1-yl)ethoxy)benzyl) (methyl)amino)propan-2-ol] | – | – | – | –
29.9 ± 2.45 | 77.1 ± 4.07 | 10.3 ± 1.4 | 2.5 ± 0.65 | COc1cc(CN(C)CC(O)COc2cc(Cl)cc(Cl)c2)ccc1OCCN1CCCC1 (stereo not shown) [CHJ04066, 1-(3,5-dichlorophenoxy)-3-((3-methoxy-4-(2-(pyrrolidin-1-yl)ethoxy)benzyl)(methyl)amino)propan-2-ol] | – | – | – | –
12.5 ± 2.44 | 9.62 ± 4.23 | 2.26 ± 0.37 | 5.21 ± 2.31 | COc1cc(CN(C)CC(O)COc2ccc(Cl)c(Cl)c2)ccc1OCCN1CCCC1 (stereo not shown) [CHJ04072, 1-(3,4-dichlorophenoxy)-3-((3-methoxy-4-(2-(pyrrolidin-1-yl)ethoxy)benzyl)(methyl)amino)propan-2-ol] | – | – | – | –
22.3 ± 1.98 | 28.5 ± 5.22 | 7.51 ± 2.62 | 2.82 ± 1.05 | COc1cc(CN(C)CC(O)COc2ccccc2C(F)(F)F)ccc1OCCN1CCC(C)CC1 (stereo not shown) [CHJ04082] | – | – | – | –
13.3 ± 2.02 | 10.4 ± 1.43 | 2.44 ± 1.03 | 1.23 ± 0.17 | COc1cc(CN(C)CC(O)COc2ccc(Cl)cc2)ccc1OCCN1CCC(C)CC1 (stereo not shown) [CHJ04083, 1-(4-chlorophenoxy)-3((3-methoxy-4-(2-(4-methylpiperidin-1-yl)ethoxy)benzyl)(methyl)amino)propan-2-ol] | – | – | – | –
42.7 ± 3.06 | 96.4 ± 2.72 | 16.7 ± 2.48 | 7.54 ± 1.02 | COc1ccc(OCC(O)CN(C)Cc2ccc(OCCN3CCC(C)CC3)c(OC)c2)cc1 (stereo not shown) [CHJ04084, 1-((3-methoxy-4-(2-(4-methylpiperidin-1-yl)ethoxy)benzyl)(methyl)amino)-3-(4-methoxyphenoxy)propan-2-ol] | – | – | – | –
28.8 ± 5.12 | 49.2 ± 1.97 | 7.32 ± 1.8 | 1.94 ± 0.79 | COc1cc(CN(C)CC(O)COc2ccccc2Cl)ccc1OCCN1CCC(C)CC1 (stereo not shown) [CHJ04085, 1-(2-chlorophenoxy)-3-((3-methoxy-4-(2-(4-methylpiperidin-1-yl)ethoxy)benzyl) (methyl)amino)propan-2-ol] | – | – | – | –
27.8 ± 1.73 | 42.7 ± 2.61 | 15 ± 2.37 | 49.5 ± 3.54 | CCN(CC)CCOc1ccc(CN(C)CC(O)COc2ccccc2C(C)C)cc1OC (stereo not shown) [CHJ04089, 1-((4-(2-(diethylamino)ethoxy)-3-methoxybenzyl)(methyl)amino)-3-(2-isopropylphenoxy)propan-2-ol] | – | – | – | –
35 ± 2.21 | 36.4 ± 2.17 | 11.7 ± 2.12 | 34 ± 2.59 | CCN(CC)CCOc1ccc(CN(C)CC(O)COc2cc(C(F)(F)F)ccc2Br)cc1OC (stereo not shown) [CHJ04090, 1-(2-bromo-5-(trifluoromethyl)phenoxy)-3-((4-(2-(diethylamino)ethoxy)-3-methoxybenzyl)(methyl)amino)propan-2-ol] | – | – | – | –
11.1 ± 1.33 | 17.8 ± 3.11 | 4.01 ± 3.11 | 10.6 ± 3.2 | CCN(CC)CCOc1ccc(CN(C)CC(O)COc2ccc(Cl)c(Cl)c2)cc1OC (stereo not shown) [CHJ04091, 1-(3,4-dichlorophenoxy)-3-((4-(2-(diethylamino)ethoxy)-3-methoxybenzyl)(methyl)amino)propan-2-ol] | – | – | – | –
30.2 ± 2.76 | 34.5 ± 2.7 | 11.2 ± 1.05 | 47.9 ± 3.43 | CCN(CC)CCOc1ccc(CN(C)CC(O)COc2ccc(F)c(Br)c2)cc1OC (stereo not shown) [CHJ04092, 1-(3-bromo-4-fluorophenoxy)-3-((4-(2-(diethylamino)ethoxy)-3-methoxybenzyl)(methyl)amino)propan-2-ol] | – | – | – | –
20.1 ± 2.01 | 10.2 ± 1.69 | 2.6 ± 1.22 | 14.5 ± 2.14 | CCN(CC)CCOc1ccc(CN(C)CC(O)COc2ccc(Br)c(C(F)(F)F)c2)cc1OC (stereo not shown) [CHJ04093] | – | – | – | –
18.4 ± 3.17 | 15.9 ± 2.11 | 2.05 ± 1.01 | 28.5 ± 4.42 | CCN(CC)CCOc1ccc(CN(C)CC(O)COc2c(Cl)cc(Br)cc2Cl)cc1OC (stereo not shown) [CHJ04094, 1-(4-bromo-2,6-dichlorophenoxy)-3-((4-(2-(diethylamino)ethoxy)-3-methoxybenzyl) (methyl)amino)propan-2-ol] | – | – | – | –
24.4 ± 2.78 | 33.6 ± 2.47 | 14.8 ± 2.77 | 32.1 ± 3.39 | COc1cc(CN(C)CC(O)COc2ccc(Br)c(C(F)(F)F)c2)ccc1OCCn1ccnc1 (stereo not shown) [CHJ04097, 1-((4-(2-(1H-imidazol-1-yl)ethoxy)-3-methoxybenzyl)(methyl)amino)-3-(4-bromo-3-(trifluoromethyl)phenoxy)propari-ol] | – | – | – | –
23.1 ± 2.58 | 37.4 ± 2.48 | 16.2 ± 2.11 | 38.2 ± 2.94 | COc1cc(CN(C)CC(O)COc2cc(C(F)(F)F)ccc2Br)ccc1OCCn1ccnc1 (stereo not shown) [CHJ04099, 1-((4-(2-(1H-imidazol-1yl)ethoxy)-3-methoxybenzyl)(methyl)amino)-3-(2-bromo-5-(trifluoromethyl)phenoxy)propan-2-ol] | – | – | – | –
30.7 ± 3.12 | 40.1 ± 3.02 | 15.8 ± 1.73 | 49.1 ± 2.71 | COc1cc(CN(C)CC(O)COc2ccc(Br)cc2)ccc1OCCn1ccnc1 (stereo not shown) [CHJ05001] | – | – | – | –
34 ± 2.11 | 35.1 ± 1.35 | 24.9 ± 1.93 | 52.5 ± 1.22 | COc1cc(CN(C)CC(O)COc2ccc(C)c(Br)c2)ccc1OCCn1ccnc1 (stereo not shown) [CHJ05003, 1-((4-(2-(1H-imidazol-1-yl)ethoxy)03-methoxybenzyl)(methyl)amino)-3-(3-bromo-4-methylphenoxy)propan-2-ol] | – | – | – | –
14.64 ± 0.06 | 21.07 ± 0.18 | 27.1 ± 0.66 | 8.48 ± 0.07 | CCOc1ccccc1OCC(O)CN(C)Cc1ccc(OCCN2CCC(C)CC2)c(OC)c1 (stereo not shown) [SAMS10] | – | – | – | –
– | – | – | – | N.N.[Cl][Pt][Cl] [cisplatin, reference compound] | 4.21 ± 1.31 | 1.91 ± 0.43 | 5.91 ± 1.64 | 2.64 ± 1.12
